Data published in US20250255850A1, “PHARMACEUTICAL COMPOSITIONS FOR TREATING NEUROLOGICAL CONDITIONS” (YISSUM RESEARCH DEVELOPMENT COMPANY OF THE HEBREW …, priority 2021, published 2025).
Converted amounts (≈) assume the structure as drawn.

Tests used:
CNTNAP2−/− mutant mice [1] = test: Three-chamber sociability test, CNTNAP2-/- mutant mice (M2); assay type: in vivo, mouse; settings: 7-NI i.p. 80 mg/kg daily for 10 days, vs untreated M2
Description: (§1) Behavioral testing started after 2 hours of treatment.
Three-chambered sociability test (see, FIG. 4B): Sociability and preference for social novelty and social recognition were tested in a three-chambered apparatus. The subjected mouse was first placed in the central, neutral chamber and allowed to explore for 10 minutes with all the doors closed. Next, doors were opened and the mouse was allowed to freely explore the other two empty chambers (1 and 2) for an additional 10 minutes. Lack of side preference was confirmed during this habituation.
Two cylindrical wire cages were placed, one in chamber 1 and the other in chamber 2. For the sociability test, the test animal was introduced to the middle chamber and allowed to adjust for 5 minutes. Then, an unfamiliar mouse was introduced into a wire cage in one of the side-chambers, and the other side-chamber remained empty. The time spent by the test mouse exploring the wire cage with an unfamiliar mouse inside was recorded for 5 minutes.
(§2) In another set of tests, the potential effects of inhibiting NO on the cognitive functions was assayed on an additional mouse model of ASD-CNTNAP2−/− mutant mice. The mice were divided into three testing groups: WT mice, CNTNAP2−/− mutant mice (M2), and mutant mice that were administered with 7-NI (M2+7NI).

CNTNAP2−/− mutant mice [2] = test: Elevated plus maze test, CNTNAP2-/- mutant mice (M2); assay type: in vivo, mouse; settings: 7-NI i.p. 80 mg/kg daily for 10 days, vs untreated mutant mice
Description: as §1
Elevated plus maze test (see, FIG. 4C): The elevated plus-maze consisted of four arms (30×5 cm), two open, and the other two closed. The platform was made of white plexiglass. The apparatus was elevated 45 cm above the floor. The test, described in, was initiated by placing the mouse on the central platform of the maze, facing one of the open arms, and letting it move freely. Each session lasted 5 min. The time spent in the close and open arms was recorded.
as §2

3-nitrotyrosine [3] = test: Western blot of 3-nitrotyrosine in cortical tissue, CNTNAP2(-/-) mutant group (M2); assay type: in vivo, mouse; settings: CNTNAP2(-/-) mutant mice treated with 7-NI (M2+7-NI) vs M2
Description: as §1
(§3) To further corroborate these findings, the expression of 3-nitrotyrosine in cortical tissue of the wild type (WT), compared with the SHANK3 mutant group (M1), and SHANK3 group treated with 7-NI (M1+7-NI), and in cortical tissue of the wild type (WT), compared with the CNTNAP2^(−/−) mutant group (M2), and the CNTNAP2^(−/−) mutant group treated with 7-NI (M2+7—NI) was tested, and the obtained data is presented in FIGS. 3C-D (for M1) and in FIGS. 3E-F (for M2).

[4] = even in very high doses; Biopharm. Drug Dispos. 2000, 21, 221-228; cited from earlier work
3-nitrotyrosine [5] = test: Western blot of 3-nitrotyrosine in cortical tissue, SHANK3 mutant group (M1); assay type: in vivo, mouse; settings: SHANK3 mutant mice treated with 7-NI (M1+7-NI) vs M1
Description: as §1, §3

[6] = cited from earlier work
[7] = Solubility of 7-NI in PBS; assay type: physicochemical; settings: phosphate buffer (PBS), aqueous buffer; 10 mM phosphate buffer pH 7.2
SHANK3 knockout mice = test: Novel object recognition test, SHANK3 knockout mice (M1); assay type: in vivo, mouse; settings: 7-NI IP 80 mg/kg/day for 10 days
Description: as §1
Novel object recognition (see, FIG. 4A): The novel object test for object recognition and memory takes place in a white open field arena (45×45 cm). The test involves a set of two unique novel objects, each about the size of a mouse, constructed from two different materials and non-uniform in shape. The test consisted of one 10-minute habituation session, a 5-minute familiarization session and a 5-minute recognition test, each video tracked (Noldus Ethovision). During the habituation, animals were allowed to freely explore an empty open field. At the end of the session, they were shifted from the open field to a place in a temporary clean holding cage for about 2 minutes. Two identical objects were placed on the median line at 10 cm from each wall and the animal was returned to the open field and allowed to explore the objects for 5 minutes before being returned to its home cage. Next day, one familiar object and one novel object were placed in the open field to the location where the identical objects were placed during the familiarization session and the mouse was allowed to explore them for a 5-minute recognition test. […] Familiarization and recognition sessions were scored for total time spent investigating each object, the number of object interactions and the latency of the first object interaction. […]

- solubility [7]: 140 µg/mL (≈ 858 µM)
SMILES: O=[N+]([O-])c1cccc2cn[nH]c12 [7-NI, 7-nitroindazole]
- time interacting with the stranger mouse (three-chamber sociability) (CNTNAP2−/− mutant mice [1]): spent significantly prolonged time interacting with the stranger mouse
- anxiety like behaviors (elevated plus maze) (CNTNAP2−/− mutant mice [2]): exhibited less anxiety like behaviors
- expression of 3-Ntyr in cortical tissue (3-nitrotyrosine [3]): reduced the expression of 3-Ntyr
- half-life [4]: ≤ 2 h
- expression of 3-Ntyr in cortical tissue (3-nitrotyrosine [5]): reduced the expression of 3-Ntyr
- solubility in aqueous medium [6]: very low solubility
- preference for the novel object (NOR test) (SHANK3 knockout mice; SHANK3 knockout mice aged 6 weeks): exhibited a significant preference for the novel object over the familiar one
- memory (novel object recognition) in aged mice (SHANK3 knockout mice; SHANK3 knockout mice aged 10 months): restored
